Experimental data taken from patent publication US9562085B2, “Antimicrobial peptide” (priority 2013, dated 2017).
Non-standard residues stand in square brackets, D forms with d. Residues, ends and D or L forms follow the SMILES beside them.

Test system: S. aureus JAR
Type: cell-based
Details: JAR, 2 h
Method: S. aureus JAR is described in Campoccia et al. (Int. J. Artif. Organs, 2008 September; 31(9):841-7).
For the in vitro killing assay with P10 variants, S. aureus JAR ([…] CFU/ml) were incubated for 2 hours at 37° C. with various concentrations of the peptides in PBS or in PBS/human plasma (1/1, v/v). […] The LC99.9 is the average value of two independent experiments.

`CC[C@H](C)[C@H](NC(=O)[C@H](CCCCN)NC(=O)[C@H](CCCCN)NC(=O)[C@H](Cc1ccc(O)cc1)NC(=O)[C@H](CCC(=O)O)NC(=O)[C@H](CCCNC(=N)N)NC(=O)[C@H](C)NC(=O)[C@H](CC(C)C)NC(C)=O)C(=O)N[C@H](C(=O)N[C@@H](CCC(=O)O)C(=O)N[C@@H](CCCCN)C(=O)N[C@@H](CC(C)C)C(=O)N[C@@H](CCCCN)C(=O)N[C@@H](CCCNC(=N)N)C(=O)N[C@@H](Cc1c[nH]c2ccccc12)C(=O)N[C@@H](CC(C)C)C(=O)N[C@@H](CCCNC(=N)N)C(=O)N[C@@H](CCC(N)=O)C(=O)N[C@H](C(=O)N[C@H](CC(C)C)C(=O)N[C@@H](CCCNC(=N)N)C(=O)N[C@H](C(=O)N[C@@H](CC(C)C)C(=O)N[C@@H](CCCNC(=N)N)C(N)=O)[C@@H](C)O)C(C)C)C(C)C` [Peptide 1301-20, JLAREYKKIVEKLKRWLRQVlRTLRB] (Ac-LAREYKKIVEKLKRWLRQV[dL]RTLR-NH2) and `CC[C@H](C)[C@H](NC(=O)[C@H](CCCCN)NC(=O)[C@H](CCCCN)NC(=O)[C@H](Cc1ccc(O)cc1)NC(=O)[C@H](CCC(=O)O)NC(=O)[C@H](CCCNC(=N)N)NC(=O)[C@H](C)NC(=O)[C@H](CC(C)C)NC(C)=O)C(=O)N[C@H](C(=O)N[C@@H](CCC(=O)O)C(=O)N[C@@H](CCCCN)C(=O)N[C@@H](CC(C)C)C(=O)N[C@@H](CCCCN)C(=O)N[C@@H](CCCNC(=N)N)C(=O)N[C@@H](Cc1c[nH]c2ccccc12)C(=O)N[C@@H](CC(C)C)C(=O)N[C@@H](CCCNC(=N)N)C(=O)N[C@@H](CCC(N)=O)C(=O)N[C@H](C(=O)N[C@@H](CC(C)C)C(=O)N[C@H](CCCNC(=N)N)C(=O)N[C@H](C(=O)N[C@@H](CC(C)C)C(=O)N[C@@H](CCCNC(=N)N)C(N)=O)[C@@H](C)O)C(C)C)C(C)C` [Peptide 1301-21, JLAREYKKIVEKLKRWLRQVLrTLRB] (Ac-LAREYKKIVEKLKRWLRQVL[dR]TLR-NH2) are the same in “LC99.9 (μM) (50% plasma)” value: 38.4 µM for the first, 38.4 µM for the second.

`CC[C@H](C)[C@H](NC(=O)[C@H](CCCCN)NC(=O)[C@H](CCCCN)NC(=O)[C@H](Cc1ccc(O)cc1)NC(=O)[C@H](CCC(=O)O)NC(=O)[C@H](CCCNC(=N)N)NC(=O)[C@H](C)NC(=O)[C@H](CC(C)C)NC(C)=O)C(=O)N[C@H](C(=O)N[C@@H](CCC(=O)O)C(=O)N[C@@H](CCCCN)C(=O)N[C@@H](CC(C)C)C(=O)N[C@@H](CCCCN)C(=O)N[C@@H](CCCNC(=N)N)C(=O)N[C@@H](Cc1c[nH]c2ccccc12)C(=O)N[C@@H](CC(C)C)C(=O)N[C@@H](CCCNC(=N)N)C(=O)N[C@@H](CCC(N)=O)C(=O)N[C@H](C(=O)N[C@@H](CC(C)C)C(=O)N[C@@H](CCCNC(=N)N)C(=O)N[C@@H](C(=O)N[C@@H](CC(C)C)C(=O)N[C@@H](CCCNC(=N)N)C(N)=O)[C@H](C)O)C(C)C)C(C)C` [Peptide 1301-22, JLAREYKKIVEKLKRWLRQVLRtLRB] (Ac-LAREYKKIVEKLKRWLRQVLR[dT]LR-NH2) and `CC[C@H](C)[C@H](NC(=O)[C@H](CCCCN)NC(=O)[C@H](CCCCN)NC(=O)[C@H](Cc1ccc(O)cc1)NC(=O)[C@H](CCC(=O)O)NC(=O)[C@H](CCCNC(=N)N)NC(=O)[C@H](C)NC(=O)[C@H](CC(C)C)NC(C)=O)C(=O)N[C@H](C(=O)N[C@@H](CCC(=O)O)C(=O)N[C@@H](CCCCN)C(=O)N[C@@H](CC(C)C)C(=O)N[C@@H](CCCCN)C(=O)N[C@@H](CCCNC(=N)N)C(=O)N[C@@H](Cc1c[nH]c2ccccc12)C(=O)N[C@@H](CC(C)C)C(=O)N[C@@H](CCCNC(=N)N)C(=O)N[C@@H](CCC(N)=O)C(=O)N[C@H](C(=O)N[C@@H](CC(C)C)C(=O)N[C@@H](CCCNC(=N)N)C(=O)N[C@H](C(=O)N[C@H](CC(C)C)C(=O)N[C@@H](CCCNC(=N)N)C(N)=O)[C@@H](C)O)C(C)C)C(C)C` [Peptide 1301-23, JLAREYKKIVEKLKRWLRQVLRTlRB] (Ac-LAREYKKIVEKLKRWLRQVLRT[dL]R-NH2) are within 1.5-fold of each other in “LC99.9 (μM) (50% plasma)” value: 38.4 µM for the first, 32.0 µM for the second.

With `CC[C@H](C)[C@H](NC(=O)[C@H](CCCCN)NC(=O)[C@H](CCCCN)NC(=O)[C@H](Cc1ccc(O)cc1)NC(=O)[C@H](CCC(=O)O)NC(=O)[C@H](CCCNC(=N)N)NC(=O)[C@H](C)NC(=O)[C@H](CC(C)C)NC(C)=O)C(=O)N[C@H](C(=O)N[C@@H](CCC(=O)O)C(=O)N[C@@H](CCCCN)C(=O)N[C@@H](CC(C)C)C(=O)N[C@@H](CCCCN)C(=O)N[C@@H](CCCNC(=N)N)C(=O)N[C@@H](Cc1c[nH]c2ccccc12)C(=O)N[C@@H](CC(C)C)C(=O)N[C@@H](CCCNC(=N)N)C(=O)N[C@@H](CCC(N)=O)C(=O)N[C@H](C(=O)N[C@@H](CC(C)C)C(=O)N[C@@H](CCCNC(=N)N)C(=O)N[C@H](C(=O)N[C@@H](CC(C)C)C(=O)N[C@H](CCCNC(=N)N)C(N)=O)[C@@H](C)O)C(C)C)C(C)C` [Peptide 1301-24, JLAREYKKIVEKLKRWLRQVLRTLrB] (Ac-LAREYKKIVEKLKRWLRQVLRTL[dR]-NH2) the “LC99.9 (μM) (50% plasma)” value was 19.2 µM.

`CC[C@H](C)[C@H](NC(=O)[C@H](CCCCN)NC(=O)[C@H](CCCCN)NC(=O)[C@H](Cc1ccc(O)cc1)NC(=O)[C@H](CCC(=O)O)NC(=O)[C@H](CCCNC(=N)N)NC(=O)[C@H](C)NC(=O)[C@H](CC(C)C)NC(C)=O)C(=O)N[C@H](C(=O)N[C@@H](CCC(=O)O)C(=O)N[C@@H](CCCCN)C(=O)N[C@@H](CC(C)C)C(=O)N[C@@H](CCCCN)C(=O)N[C@@H](CCCNC(=N)N)C(=O)N[C@@H](Cc1c[nH]c2ccccc12)C(=O)N[C@@H](CC(C)C)C(=O)N[C@@H](CCCNC(=N)N)C(=O)N[C@@H](CCC(N)=O)C(=O)N[C@H](C(=O)N[C@H](CC(C)C)C(=O)N[C@@H](CCCNC(=N)N)C(=O)N[C@H](C(=O)N[C@@H](CC(C)C)C(=O)N[C@@H](CCCNC(=N)N)C(N)=O)[C@@H](C)O)C(C)C)C(C)C` [Peptide 1301-20, JLAREYKKIVEKLKRWLRQVlRTLRB] (Ac-LAREYKKIVEKLKRWLRQV[dL]RTLR-NH2) and `CC[C@H](C)[C@H](NC(=O)[C@H](CCCCN)NC(=O)[C@H](CCCCN)NC(=O)[C@H](Cc1ccc(O)cc1)NC(=O)[C@H](CCC(=O)O)NC(=O)[C@H](CCCNC(=N)N)NC(=O)[C@H](C)NC(=O)[C@H](CC(C)C)NC(C)=O)C(=O)N[C@H](C(=O)N[C@@H](CCC(=O)O)C(=O)N[C@@H](CCCCN)C(=O)N[C@@H](CC(C)C)C(=O)N[C@@H](CCCCN)C(=O)N[C@@H](CCCNC(=N)N)C(=O)N[C@@H](Cc1c[nH]c2ccccc12)C(=O)N[C@@H](CC(C)C)C(=O)N[C@@H](CCCNC(=N)N)C(=O)N[C@@H](CCC(N)=O)C(=O)N[C@H](C(=O)N[C@@H](CC(C)C)C(=O)N[C@H](CCCNC(=N)N)C(=O)N[C@H](C(=O)N[C@@H](CC(C)C)C(=O)N[C@@H](CCCNC(=N)N)C(N)=O)[C@@H](C)O)C(C)C)C(C)C` [Peptide 1301-21, JLAREYKKIVEKLKRWLRQVLrTLRB] (Ac-LAREYKKIVEKLKRWLRQVL[dR]TLR-NH2) are the same in “LC99.9 (μM) (PBS)” value: 0.6 µM for the first, 0.6 µM for the second.

`CC[C@H](C)[C@H](NC(=O)[C@H](CCCCN)NC(=O)[C@H](CCCCN)NC(=O)[C@H](Cc1ccc(O)cc1)NC(=O)[C@H](CCC(=O)O)NC(=O)[C@H](CCCNC(=N)N)NC(=O)[C@H](C)NC(=O)[C@H](CC(C)C)NC(C)=O)C(=O)N[C@H](C(=O)N[C@@H](CCC(=O)O)C(=O)N[C@@H](CCCCN)C(=O)N[C@@H](CC(C)C)C(=O)N[C@@H](CCCCN)C(=O)N[C@@H](CCCNC(=N)N)C(=O)N[C@@H](Cc1c[nH]c2ccccc12)C(=O)N[C@@H](CC(C)C)C(=O)N[C@@H](CCCNC(=N)N)C(=O)N[C@@H](CCC(N)=O)C(=O)N[C@H](C(=O)N[C@@H](CC(C)C)C(=O)N[C@@H](CCCNC(=N)N)C(=O)N[C@@H](C(=O)N[C@@H](CC(C)C)C(=O)N[C@@H](CCCNC(=N)N)C(N)=O)[C@H](C)O)C(C)C)C(C)C` [Peptide 1301-22, JLAREYKKIVEKLKRWLRQVLRtLRB] (Ac-LAREYKKIVEKLKRWLRQVLR[dT]LR-NH2) and `CC[C@H](C)[C@H](NC(=O)[C@H](CCCCN)NC(=O)[C@H](CCCCN)NC(=O)[C@H](Cc1ccc(O)cc1)NC(=O)[C@H](CCC(=O)O)NC(=O)[C@H](CCCNC(=N)N)NC(=O)[C@H](C)NC(=O)[C@H](CC(C)C)NC(C)=O)C(=O)N[C@H](C(=O)N[C@@H](CCC(=O)O)C(=O)N[C@@H](CCCCN)C(=O)N[C@@H](CC(C)C)C(=O)N[C@@H](CCCCN)C(=O)N[C@@H](CCCNC(=N)N)C(=O)N[C@@H](Cc1c[nH]c2ccccc12)C(=O)N[C@@H](CC(C)C)C(=O)N[C@@H](CCCNC(=N)N)C(=O)N[C@@H](CCC(N)=O)C(=O)N[C@H](C(=O)N[C@@H](CC(C)C)C(=O)N[C@@H](CCCNC(=N)N)C(=O)N[C@H](C(=O)N[C@H](CC(C)C)C(=O)N[C@@H](CCCNC(=N)N)C(N)=O)[C@@H](C)O)C(C)C)C(C)C` [Peptide 1301-23, JLAREYKKIVEKLKRWLRQVLRTlRB] (Ac-LAREYKKIVEKLKRWLRQVLRT[dL]R-NH2) are within 1.5-fold of each other in “LC99.9 (μM) (PBS)” value: 0.6 µM for the first, 0.4 µM for the second.

For `CC[C@H](C)[C@H](NC(=O)[C@H](CCCCN)NC(=O)[C@H](CCCCN)NC(=O)[C@H](Cc1ccc(O)cc1)NC(=O)[C@H](CCC(=O)O)NC(=O)[C@H](CCCNC(=N)N)NC(=O)[C@H](C)NC(=O)[C@H](CC(C)C)NC(C)=O)C(=O)N[C@H](C(=O)N[C@@H](CCC(=O)O)C(=O)N[C@@H](CCCCN)C(=O)N[C@@H](CC(C)C)C(=O)N[C@@H](CCCCN)C(=O)N[C@@H](CCCNC(=N)N)C(=O)N[C@@H](Cc1c[nH]c2ccccc12)C(=O)N[C@@H](CC(C)C)C(=O)N[C@@H](CCCNC(=N)N)C(=O)N[C@@H](CCC(N)=O)C(=O)N[C@H](C(=O)N[C@@H](CC(C)C)C(=O)N[C@@H](CCCNC(=N)N)C(=O)N[C@H](C(=O)N[C@@H](CC(C)C)C(=O)N[C@H](CCCNC(=N)N)C(N)=O)[C@@H](C)O)C(C)C)C(C)C` [Peptide 1301-24, JLAREYKKIVEKLKRWLRQVLRTLrB] (Ac-LAREYKKIVEKLKRWLRQVLRTL[dR]-NH2), the “LC99.9 (μM) (PBS)” value was 0.6 µM.
